Data set [1] deals with primary mouse neutrophils. Briefly: Neutrophil ROS production, fMLP-stimulated. To be noted: 10 µM fMLP. Type of data set: cell-based. The protocol: Prex^−/− mice (Prex1^−/−Prex2^−/−) with general P-Rex deficiency were described previously and were compared to Prex^+/+ (Prex1^+/+Prex2^+/+) control mice on the same genetic background (C57Bl6/129Ola backcrossed seven times to C57Bl6). Mice were group-housed (up to 5) under specific opportunistic pathogen-free isolator conditions in Babraham’s small animal barrier facility that uses 12 h light/dark cycles with dusk and dawn settings, and were fed chow diet and water ad libitum. Mice from both sexes were used for experiments, at young-adult age (between 8 and 14 weeks), and were sex- and age-matched between genotypes within experiments. […]
Mature primary neutrophils were isolated from the bone marrow of age- and sex-matched Prex^+/+ and Prex^−/− mice freshly each day at 4°C, using Percoll^Plus (GE Healthcare) gradient, as described, using endotoxin-free media throughout. Isolated neutrophils were 70–90% pure, as assessed by KwikDiff staining of cytospins. ROS production was measured by real-time chemiluminescence assay as described, except that neutrophils were incubated with PREX-in1 before the assay. […] Real-time ROS production was recorded in a Berthold MicroLumat Plus luminometer (Berthold Technologies) at 37°C, for 2.5 min with fMLP stimulation or for 10 min with PMA stimulation. […]

A further data set deals with HEK-293 cells. Briefly: Cell cycle stages by propidium iodide flow cytometry. Type of data set: cell-based. The protocol:
Human embryonic kidney 293 (HEK-293) cells were grown at 37°C in a humidified 5% CO2 atmosphere in Dulbecco’s modified Eagle medium (DMEM, Gibco) supplemented with 10% foetal bovine serum (FBS), 100 units/ml penicillin and 100 µg/ml streptomycin. Cells were passaged by tryptic digest 1:4 approximately every 2 days. To measure cell cycle stages, 2 ml HEK293 cells were plated per well of a 6-well dish (Thermo Scientific, Nunc) at 10^5 cells/ml. After 24 h, the medium was replaced with fresh medium containing various concentrations of PREX-in1, as indicated, or 10 μM NSC23766, or vehicle control (0.1% DMSO), and cells were incubated for a further 24 h. The medium was removed but kept aside to recover any detached cells. Wells were washed with PBS, and cells recovered by trypsinization. Cell suspensions were pooled with the culture supernatant and centrifuged at 433 × g for 5 min at RT. Cells were washed in PBS, resuspended in ice-cold 70% ethanol/PBS, and incubated for 30 min at 4°C for fixation and permeabilization. Cells were washed once more in PBS, then stained with 50 µg/ml propidium iodide in PBS containing 100 µg/ml RNase for 30 min at 37°C. Cells were analysed by flow cytometry for the intensity of propidium iodide staining using a FACSCalibur flow cytometer. 10,000 cells were analysed per sample. Data analysis was done using FloJo software.

In the case of `COc1ccc(-c2[nH]nc3c2C(c2ccc(-c4ccc(Cl)cc4)o2)C(C#N)=C(N)O3)cc1` (stereo not shown) [PREX-in1, 6-amino-4-[5-(4-chlorophenyl)-2-furyl]-3-(4-methoxyphenyl)-2,4-dihydropyrano[2,3-c]pyrazole-5-carbonitrile], the inhibition (as a rule, the share of the control response that was lost under treatment) at 1 µM in data set [1] (Mus musculus, Neutrophil, 7 min, Prex+/+ neutrophils, 1 µM for 7 min, read-out: inhibition of ROS production overall) was 50%. The “effect on ROS response” value in data set [1] (Prex-/- neutrophils, 1 µM) was “did not affect”. In the data set on HEK-293 cells (1 µM), the cytotoxic effects result is on record as “did not observe cytotoxic effects”. The “cell death (sub-G1 phase)” value in the data set on HEK-293 cells (24 h treatment, 10 µM) is reported as “promotes cell death”.

The values are drawn from PMC9645260, “Small-molecule inhibitors of P-Rex guanine-nucleotide exchange factors” (Small GTPases, 2022).
